The values below come from patent publication US11597708B2, “Inhibitors of heat shock factors and uses thereof” (HSF Pharmaceuticals SA, priority 2016, dated 2023).

The target of one experiment is T1, LexA-hHSF (Homo sapiens, UniProt Q00613).
T1 construct: expressed in transfected cells; the other entry of the earlier key: lexA (P0A7C2, LexA repressor)
T1 sequence (Q00613 with tags, fused parts or gaps): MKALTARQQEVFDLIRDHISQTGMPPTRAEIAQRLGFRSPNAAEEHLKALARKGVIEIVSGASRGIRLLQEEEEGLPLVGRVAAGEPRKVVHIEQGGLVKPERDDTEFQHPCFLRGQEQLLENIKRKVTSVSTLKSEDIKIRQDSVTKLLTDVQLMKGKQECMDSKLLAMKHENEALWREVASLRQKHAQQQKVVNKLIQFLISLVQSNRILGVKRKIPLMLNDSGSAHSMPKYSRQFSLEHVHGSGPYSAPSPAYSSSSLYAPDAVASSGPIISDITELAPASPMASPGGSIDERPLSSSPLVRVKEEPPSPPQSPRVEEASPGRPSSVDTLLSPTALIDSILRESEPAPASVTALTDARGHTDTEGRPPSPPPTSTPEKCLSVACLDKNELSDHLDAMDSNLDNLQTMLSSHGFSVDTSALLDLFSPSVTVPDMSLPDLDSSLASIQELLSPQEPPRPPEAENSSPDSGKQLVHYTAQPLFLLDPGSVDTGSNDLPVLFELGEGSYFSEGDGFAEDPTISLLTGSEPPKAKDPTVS
The experiment in a line: Z74 cell-based reporter assay: heat-induced FLuc expression controlled by chimeric LexA-HSF1. To be noted: IHSF 001 tested at 25 μM. The text has this:
For screening this sublibrary, a cell-based assay was developed. We opted for a cell-based assay, because a cell-free assay would have had to be a DNA-binding assay. Such an assay would have limited discovery to molecules capable of interfering with the DNA-binding function of HSF1. This was thought to be too narrow a focus, considering that three of the four cavities identified in the HSF1 DNA-binding domain are not near the DNA interaction region. A straightforward cell-based assay, in which a HSF1-responsive gene would be assayed, was considered likely to be over-inclusive. Compounds would be scored as hits that inhibit any factor that is involved in HSF1 activation or prevents HSF1 deactivation. These factors include protein kinases, activators of protein phosphatases, factors affecting HSF1 mRNA stability, HSP90, HDAC6, etc. For developing a more discriminating cell-based assay, advantage was taken of the modular nature of HSF1. […] The cell-based assay developed (see below for the particular format employed) compared transactivation by wild type HSF1 and chimeric HSF1 in cells exposed to an HSF1-activating heat treatment in the presence of a sublibrary compound. A compound was scored as a hit, if it inhibited the activity of wild type HSF1 but not of chimeric HSF1.
The cell-based assay made use of HeLa-derived cell line Z74 that stably contains a gene for chimeric transcription factor LexA-(human) HSF1 under the control of a CMV early promoter, a firefly luciferase (flue) gene driven by a promoter responsive to the latter chimeric transcription factor and a Renilla luciferase (rluc) gene functionally linked to an hsp70b promoter and therefore controlled by endogenous HSF1 (FIG. 1A). As is shown in FIGS. 1B & C, the reporter genes responded similarly to heat dose, i.e., their activation depended on both duration of heat exposure and temperature of the exposure. […] Depletion of HSF1 (and LexA-HSF1) by siRNA supported the notion that this stress regulation is mediated by HSF1 (and LexA-HSF1). Therefore, the Z74 line was well suited for use in a screening assay aimed at discovering molecules that inhibit heat-induced HSF1 activity through interaction with the transcription factor's DNA-binding domain.
The compounds of the afore-mentioned biased sublibrary were screened in cell line Z74 at 12.5 and 25 μM concentrations. Typically, Z74 cultures in 96-well plates were exposed to compound or vehicle for 2 h, heat-treated at 43.0° C. for 30 min, and incubated further for 6 h at 37° C. to allow for accumulation of the luciferases. RLuc and FLuc activities were determined, typically using the Dual-Glo® Luciferase Assay System (Promega Corp., Madison, Wis.), and reading luciferase light counts in a Wallac Microbeta Trilux-1450 Luminometer (PerkinElmer, Waltham, Mass.). IHSF 001 was one of two library compounds that inhibited RLuc expression but not FLuc expression in heat-treated Z74 cells (Table 1; FIG. 2A). Therefore, IHSF 001 is an inhibitor of HSF1 function that specifically acts through the HSF1 DNA-binding domain. […] A corroborating experiment utilized a cell line containing an hsp70b promoter-driven fluc gene. […] IHSF 001 is (E)-ethyl 4-oxo-4-(thiazol-2-ylamino)but-2-enoate. The compound can be obtained from commercial sources (e.g., AKE-PB-90340538, Akos).
Background: In a reporter assay the amount or activity of a reporter protein is the signal.

A further experiment concerns the target T2, HSE DNA-binding activity (Homo sapiens, UniProt Q00613).
T2 construct: functionally linked to an hsp70b promoter and therefore controlled by endogenous HSF1; endogenous in cells; host or cells: HeLa cells / HeLa-derived cell line Z74
T2 sequence (Q00613 1-529): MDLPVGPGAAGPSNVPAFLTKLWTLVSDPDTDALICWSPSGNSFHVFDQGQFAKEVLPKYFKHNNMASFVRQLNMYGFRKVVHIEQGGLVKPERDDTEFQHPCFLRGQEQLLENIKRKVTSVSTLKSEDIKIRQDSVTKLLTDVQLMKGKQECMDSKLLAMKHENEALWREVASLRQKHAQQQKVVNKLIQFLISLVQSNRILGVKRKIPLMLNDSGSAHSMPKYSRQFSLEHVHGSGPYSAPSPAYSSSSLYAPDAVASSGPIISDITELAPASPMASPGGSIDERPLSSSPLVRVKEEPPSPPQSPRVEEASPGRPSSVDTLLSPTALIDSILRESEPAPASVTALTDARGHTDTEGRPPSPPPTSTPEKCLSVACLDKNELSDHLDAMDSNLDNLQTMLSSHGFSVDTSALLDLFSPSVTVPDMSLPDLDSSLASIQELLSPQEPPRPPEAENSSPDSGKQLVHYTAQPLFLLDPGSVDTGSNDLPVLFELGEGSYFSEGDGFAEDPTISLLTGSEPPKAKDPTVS
In words: EMSA using extracts of heat-treated HeLa cells, in the presence of IHSF. It is filed as biochemical. To be noted: extracts of HeLa cells heat-treated at 43° C. for 30 min; concentrations as high as about 0.5 mM. As to the method:
Electrophoretic mobility shift assays (EMSA) using a radiolabeled HSE DNA probe were carried out to assess HSF1 DNA-binding activity in extracts of heat-treated (43° C./30 min) HeLa cells that had been exposed to different concentrations of compounds 058 or 115 (FIG. 3A, top panels). […] HSF1 degradation correlated well with the observed decrease in DNA-binding activity. Therefore, HSF1 degradation provides a sufficient explanation for the reduced HSE DNA-binding activity in cells treated with IHSF 058. […] EMSA were also carried out using extracts of HeLa cells that had been heat-treated at 43° C. for 30 min.
For orientation: Mobility shift assays separate free from complexed probe on a gel.

SMILES strings stand for the structures.

Turning to `CCOC(=O)/C=C/C(=O)Nc1nccs1` [IHSF 001, (E)-ethyl 4-oxo-4-(thiazol-2-ylamino)but-2-enoate], the inhibition at 25 µM at LexA-hHSF (Experiment No. 1) was 3%; against LexA-hHSF (Experiment No. 2), 0%; against LexA-hHSF (Experiment No. 3) it was 0%; against LexA-hHSF (Experiment No. 4), 0%; against LexA-hHSF (Experiment No. 5), 0%; at LexA-hHSF (Experiment No. 6), 0%. The inhibition at 25 µM at LexA-hHSF (Experiment No. 7) worked out at 0%; against LexA-hHSF (Experiment No. 8) it was 0%; against LexA-hHSF (Experiment No. 9), 15%. Moreover, the “HSE DNA-binding activity (EMSA) in the presence of IHSF” value on HSE DNA-binding activity is given as “no reduction”.

A word on the inhibition: it is the relative decrease from the control value, in per cent. A lower inhibition goes with a response near the control.
